# Laboratory results taken from patent publication US20230355622A1, “METHODS OF CHEMOVACCINATION AGAINST PLASMODIUM INFECTIONS” (Merck Sharp & Dohme LLC, priority 2020, published 2023).
# What was measured:
# parasite = experiment: Parasite LDH growth assay (Parasite Assay), antiparasite potency; format: cell-based; conditions: 72 h, parasite LDH growth assay, ring stage parasites, 72 hours incubation at 37° C.; read-out: EC50
# Procedure, shortened: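 Ring-stage parasites at 0.7% parasitemia and 2% haematocrit, in RPMI-Hepes/bicarbonate with 5% heat-inactivated human serum and 0.5% albumax, were added to compound-containing medium. Cultures grew 72 h at 37 °C in gassed humidified boxes. Plates were then frozen overnight at −80 °C, thawed 4 h, and growth was measured by LDH assay.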
# [1] = test system: PbmCherryLuci sporozoites; experiment: Inhibition of liver to blood transition in C57BL/6 mice (FIG. 8); format: in vivo, Plasmodium berghei
# Protocol: 40,000 PbmCherryLuci sporozoites (or the indicated number of sporozoites) were inoculated i.v. and compounds were administered by oral gavage at indicated time points during liver infection. Liver infection levels and egress of parasites from the liver were measured by bioluminescence signal from the parasites using an In Vivo Imaging System (IVIS, Perkin Elmer) at the peak of liver infection (52 hours post infection, hpi), during liver egress (55 hpi) as well as during the first round of blood infection (65 hpi). Initiation of blood infection was also measured by flow cytometry at 65 hpi using the mCherry reporter to determine the parasitemia of this first round of blood infection. These analyses allowed quantification of the efficacy of drug killing of parasites in the liver (52 hpi), preventing their egress from the liver (55 hpi) or preventing their successful infection of the blood (65 hpi). Mice were monitored by giemsa stained thin blood smears for the presence of parasites in the blood for 30 days post infection. If no blood infection was seen during the subsequent 30 days, mice were declared cured of malaria infection.
# C57BL/6 mice were administered Example 1A or Example 75A as described in the general experimental procedure.
# PbmCherryLuci = experiment: Prime/boost immunisation of C57BL/6 mice with Example 75A, mosquito bite challenge (FIG. 9); format: in vivo, Plasmodium berghei; conditions: female C57BL/6, prime/boost, 2 x 500 mg/kg P.O. at 36 and 48 h; 10 mosquito bites at 12 weeks after prime
# Protocol: To investigate if chemoprophylaxis with Example 75A would serve as a chemovaccination as does Example IA, female C57BL/6 mice were immunized using a prime/boost regimen. The first immunisation was with 40,000 PbmCherryLuci salivary gland sporozoites i.v. followed by two doses of Example 75A at 500 mg/kg P.O. (given at 36 and 48 hours post infection). The second immunisation (boost) was six weeks later, this time with 20,000 PbmCherryLuci sporozoites but with Example 75A treatment as for the prime immunisation. Six weeks after the boost immunisation (twelve weeks after the prime immunisation) the immunised mice were challenged with the bites of 10 PbmCherryLuci infected mosquitoes for 15 minutes. Giemsa stained thin blood smears were analysed until day 30 for the presence of parasites in the blood and mice were considered to be protected from infection if no blood parasites were observed within the 30 days post mosquito bite challenge.
# PMIX [2] = experiment: Cleavage of PMIX substrates RAP1 and ASP in parasite extracts; format: cell-based, P. falciparum
# Protocol: To confirm that Example 1A was a dual inhibitor of PMIX and PMX function, the ability of this compound to inhibit cleavage of the known PMIX substrate Rhoptry Associated Protein 1 (RAPI) in parasite extracts was tested (Pino et al., 2017). RAP1 is a merozoite rhoptry protein that is localized to the parasitophorous vacuole after invasion and processed by both PMIX and SUB1 (Pino et al., 2017). […] RAP1 was not released into the parasite supernatant because it was deposited in the parasitophorous vacuole during the invasion process (Baldi, D., Andrews, K., Waller, R., Roos, D., Howard, R., Crabb, B. and Cowman, A. (2000)). RAP1 controls rhoptry targeting of RAP2 in the malaria parasite Plasmodium falciparum. Embo Journal 19, 2435-2443.
# PMIX [3] = experiment: Autocatalytic processing of PMIX to p55; format: cell-based; conditions: P. falciparum parasite
# Text: The development of Example 1A as a PMIX/PMX dual inhibitor of the P. falciparum parasite has allowed for the analysis of the function of these aspartic acid proteases. To do this, PMIX was processed to a 55 kDa (p55) protein and this was not inhibited by E64.
# PMX = PMX (Plasmodium falciparum, UniProt Q8IAS0); design: endogenous in cells; conditions: negative control, literature (Salmon et al. 2001); cited from earlier work
# Sequence of PMX (Q8IAS0 222-573): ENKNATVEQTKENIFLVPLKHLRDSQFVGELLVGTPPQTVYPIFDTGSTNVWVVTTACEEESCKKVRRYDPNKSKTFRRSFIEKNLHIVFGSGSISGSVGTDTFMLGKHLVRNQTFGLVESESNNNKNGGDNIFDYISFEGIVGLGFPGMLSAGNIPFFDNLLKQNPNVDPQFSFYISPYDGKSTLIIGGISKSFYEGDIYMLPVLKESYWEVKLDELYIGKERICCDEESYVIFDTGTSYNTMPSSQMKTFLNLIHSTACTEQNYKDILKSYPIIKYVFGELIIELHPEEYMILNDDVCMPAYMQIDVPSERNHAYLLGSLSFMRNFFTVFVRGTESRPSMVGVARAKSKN
smiles,measurement,setting,value
"CCC1(CC)CC(=O)N([C@H]2c3cc(C(=O)N[C@@H]4c5ccccc5C[C@H]4O)ccc3O[C@@]2(C)COC)C(=N)N1 [Example 75A, (2R,3S)-3-(4,4-diethyl-2-imino-6-oxotetrahydropyrimidin-1(2H)-yl)-N-((1R,2R)-2-hydroxy-2,3-dihydro-1H-inden-1-yl)-2-(methoxymethyl)-2-methyl-2,3-dihydrobenzofuran-5-carboxamide]",EC50,parasite,0.4 nM
same,mice protected,[1]; 300 mg/kg,8 mice
same,mice protected,[1]; 500 mg/kg,10/11
same,detection of parasites in the blood,[1]; lower doses (below 300 mg/kg),large delays in the detection of parasites in the blood
same,sterile protection from reinfection,PbmCherryLuci,100%
"CCC1(CC)CC(=O)N([C@@H]2c3cc(C(=O)N[C@@H]4c5ccccc5OC(C)(C)[C@H]4O)ccc3OC[C@@]2(C)OC)C(=N)N1 [Example 295, (3S,4R)-4-(4,4-diethyl-2-imino-6-oxo-hexahydropyrimidin-1-yl)-N-[(3S,4R)-3-hydroxy-2,2-dimethyl-chroman-4-yl]-3-methoxy-3-methyl-chromane-6-carboxamide]",EC50,parasite,100 nM
"CCC1(CC)CC(=O)N([C@H]2c3cc(C(=O)N[C@@H]4c5ccccc5OC(C)(C)[C@H]4O)ccc3OC[C@]2(C)OC)C(=N)N1 [Example 296, (3R,4S)-4-(4,4-diethyl-2-imino-6-oxo-hexahydropyrimidin-1-yl)-N-[(3S,4R)-3-hydroxy-2,2-dimethyl-chroman-4-yl]-3-methoxy-3-methyl-chromane-6-carboxamide]",EC50,parasite,0.3 nM
"CCC1(CC)CC(=O)N([C@H]2c3cc(C(=O)N[C@@H]4c5ccccc5OC(C)(C)[C@H]4O)ccc3OC[C@H]2COC)C(=N)N1 [Example 298, (3R,4R)-4-(4,4-diethyl-2-imino-6-oxotetrahydropyrimidin-1(2H)-yl)-N-((3S,4R)-3-hydroxy-2,2-dimethylchroman-4-yl)-3-(methoxymethyl)chromane-6-carboxamide]",EC50,parasite,0.5 nM
"CCC1(CC)CC(=O)N([C@H]2c3cc(C(=O)N[C@@H]4c5ccccc5OC(C)(C)[C@H]4O)ccc3OC[C@@H]2COC)C(=N)N1 [Example 299, (3S,4R)-4-(4,4-diethyl-2-imino-6-oxo-hexahydropyrimidin-1-yl)-N-[(3S,4R)-3-hydroxy-2,2-dimethyl-chroman-4-yl]-3-(methoxymethyl)chromane-6-carboxamide]",EC50,parasite,0.8 nM
"CC(C)C[C@H](NC(=O)[C@H]1O[C@@H]1C(=O)O)C(=O)NCCCCN=C(N)N [Example E64, reference compound]",RAP1 processing by PMIX and SUB1,"PMIX [2]; treated parasites/merozoites, processed forms p82 and p69, unprocessed p87",processed normally by PMIX and SUB1
same,Apical Sushi Protein (ASP) processing by PMIX,"PMIX [2]; treated parasites, p47 processed, p87 full-length",processed into a 47 kDa polypeptide (p47)
same,PMIX processing to 55 kDa (p55) protein,PMIX [3],not inhibited
same,SERA5 processing,PMX,does not affect SERA5 processing
